Experimental data from ChEMBL document CHEMBL3046556, “Microwave-assisted synthesis and antimicrobial screening of new imidazole derivatives bearing 4-thiazolidinone nucleus” (2013).
≈ marks a conversion by molar mass, not a printed value.

Experiments:
Type in all cases: functional
Pseudomonas aeruginosa = assay: Antibacterial activity against Pseudomonas aeruginosa MTCC 1688 assessed as growth inhibition after 24 hr by NCCLS broth dilution method; settings: MTCC 1688, 24 h
Escherichia coli = assay: Antibacterial activity against Escherichia coli MTCC 443 assessed as growth inhibition after 24 hr by NCCLS broth dilution method; settings: MTCC 443, 24 h
Aspergillus clavatus = assay: Antifungal activity against Aspergillus clavatus MTCC 1323 assessed as growth inhibition after 48 hr by broth dilution method; settings: MTCC 1323, 48 h
Candida albicans = assay: Antifungal activity against Candida albicans MTCC 227 assessed as growth inhibition after 48 hr by broth dilution method; settings: MTCC 227, 48 h
Streptococcus pyogenes = assay: Antibacterial activity against Streptococcus pyogenes MTCC 442 assessed as growth inhibition after 24 hr by NCCLS broth dilution method; settings: MTCC 442, 24 h
Staphylococcus aureus = assay: Antibacterial activity against Staphylococcus aureus MTCC 96 assessed as growth inhibition after 24 hr by NCCLS broth dilution method; settings: MTCC 96, 24 h
Aspergillus niger = assay: Antifungal activity against Aspergillus niger MTCC 282 assessed as growth inhibition after 48 hr by broth dilution method; settings: MTCC 282, 48 h

| Structure (SMILES) | MIC (Pseudomonas aeruginosa) [µg/mL] | MIC (Escherichia coli) [µg/mL] | MIC (Aspergillus clavatus) [µg/mL] | MIC (Candida albicans) [µg/mL] | MIC (Streptococcus pyogenes) [µg/mL] | MIC (Staphylococcus aureus) [µg/mL] | MIC (Aspergillus niger) [µg/mL] |
| --- | --- | --- | --- | --- | --- | --- | --- |
| CC1=N/C(=C\c2ccc(C)cc2)C(=O)N1c1ccc(/C(C)=N/N=C2/NC(=O)CS2)cc1 | 250 (≈ 579 µM) | 50 (≈ 116 µM) | 50 (≈ 116 µM) | 250 (≈ 579 µM) | 25 (≈ 57.9 µM) | 12.5 (≈ 29 µM) | 12.5 (≈ 29 µM) |
| COc1ccc(/C=C2\N=C(C)N(c3ccc(/C(C)=N/N=C4/NC(=O)CS4)cc3)C2=O)cc1 | 100 (≈ 223 µM) | 250 (≈ 559 µM) | 250 (≈ 559 µM) | 500 (≈ 1120 µM) | 50 (≈ 112 µM) | 500 (≈ 1120 µM) | 250 (≈ 559 µM) |
| CC1=N/C(=C\c2ccccc2F)C(=O)N1c1ccc(/C(C)=N/N=C2/NC(=O)CS2)cc1 | 500 (≈ 1150 µM) | 250 (≈ 574 µM) | 500 (≈ 1150 µM) | 1000 (≈ 2300 µM) | 100 (≈ 230 µM) | 500 (≈ 1150 µM) | 500 (≈ 1150 µM) |
| CC1=N/C(=C\c2ccccc2[N+](=O)[O-])C(=O)N1c1ccc(/C(C)=N/N=C2/NC(=O)CS2)cc1 | 500 (≈ 1080 µM) | 100 (≈ 216 µM) | 500 (≈ 1080 µM) | 500 (≈ 1080 µM) | 100 (≈ 216 µM) | 250 (≈ 541 µM) | 500 (≈ 1080 µM) |
| CC1=N/C(=C\c2cccc(O)c2)C(=O)N1c1ccc(/C(C)=N/N=C2/NC(=O)CS2)cc1 | 250 (≈ 577 µM) | 250 (≈ 577 µM) | 250 (≈ 577 µM) | 500 (≈ 1150 µM) | 250 (≈ 577 µM) | 100 (≈ 231 µM) | 250 (≈ 577 µM) |
| CC1=N/C(=C\c2ccccc2O)C(=O)N1c1ccc(/C(C)=N/N=C2/NC(=O)CS2)cc1 | 25 (≈ 57.7 µM) | 100 (≈ 231 µM) | 100 (≈ 231 µM) | 100 (≈ 231 µM) | 100 (≈ 231 µM) | 250 (≈ 577 µM) | 50 (≈ 115 µM) |
| CC1=N/C(=C\c2ccc([N+](=O)[O-])cc2)C(=O)N1c1ccc(/C(C)=N/N=C2/NC(=O)CS2)cc1 | 100 (≈ 216 µM) | 500 (≈ 1080 µM) | 100 (≈ 216 µM) | 500 (≈ 1080 µM) | 250 (≈ 541 µM) | 250 (≈ 541 µM) | 250 (≈ 541 µM) |
